In ChEMBL document CHEMBL1150306, “2-Trifluoroacetylthiophenes, a novel series of potent and selective class II histone deacetylase inhibitors” (Bioorg Med Chem Lett, 2008):
Active and inactive are the calls of the source. The rule behind the calls is not given here.

Columns and labels:
Histone deacetylase 3 [1] = target: T1, Histone deacetylase 3 (Homo sapiens, UniProt O15379); assay: Inhibition of HDAC3 at 10 uM
Histone deacetylase 4 [2] = target: Histone deacetylase 4 (Homo sapiens, UniProt P56524, H976Y); assay: Inhibition of HDAC4GOF mutant expressed in Escherichia coli
Histone deacetylase 4 [3] = target: T2, Histone deacetylase 4 (Homo sapiens, UniProt P56524); assay: Inhibition of wild type HDAC4 expressed in Escherichia coli
T2 sequence (P56524 whole entry): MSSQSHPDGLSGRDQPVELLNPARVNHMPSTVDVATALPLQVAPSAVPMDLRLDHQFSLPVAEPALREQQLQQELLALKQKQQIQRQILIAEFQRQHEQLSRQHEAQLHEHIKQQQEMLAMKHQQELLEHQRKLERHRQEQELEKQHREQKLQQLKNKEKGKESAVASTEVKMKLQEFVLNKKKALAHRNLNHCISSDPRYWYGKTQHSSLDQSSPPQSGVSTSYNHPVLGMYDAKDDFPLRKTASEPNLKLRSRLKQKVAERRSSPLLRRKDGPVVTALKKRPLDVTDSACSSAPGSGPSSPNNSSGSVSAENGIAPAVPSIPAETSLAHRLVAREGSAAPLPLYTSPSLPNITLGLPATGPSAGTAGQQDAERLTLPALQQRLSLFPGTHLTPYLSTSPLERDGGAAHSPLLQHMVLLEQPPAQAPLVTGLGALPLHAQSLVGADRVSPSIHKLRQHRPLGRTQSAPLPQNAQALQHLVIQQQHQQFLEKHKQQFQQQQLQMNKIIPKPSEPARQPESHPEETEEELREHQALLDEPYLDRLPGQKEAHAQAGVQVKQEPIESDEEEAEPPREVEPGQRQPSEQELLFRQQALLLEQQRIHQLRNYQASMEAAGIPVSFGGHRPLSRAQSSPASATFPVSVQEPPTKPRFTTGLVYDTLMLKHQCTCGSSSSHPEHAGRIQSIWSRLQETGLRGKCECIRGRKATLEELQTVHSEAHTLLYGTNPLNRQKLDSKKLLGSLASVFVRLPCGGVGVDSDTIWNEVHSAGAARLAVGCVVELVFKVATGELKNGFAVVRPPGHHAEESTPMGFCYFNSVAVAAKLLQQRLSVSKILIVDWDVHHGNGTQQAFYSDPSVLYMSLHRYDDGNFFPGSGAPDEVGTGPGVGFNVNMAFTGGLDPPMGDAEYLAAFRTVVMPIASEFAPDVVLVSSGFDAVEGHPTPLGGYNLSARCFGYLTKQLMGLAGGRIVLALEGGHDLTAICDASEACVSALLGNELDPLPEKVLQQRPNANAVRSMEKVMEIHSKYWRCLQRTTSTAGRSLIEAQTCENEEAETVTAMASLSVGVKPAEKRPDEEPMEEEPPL

[4] = target: T3, Protein deacetylase HDAC6 (Homo sapiens, UniProt Q9UBN7); assay: Inhibition of HDAC6
T3 sequence (Q9UBN7 whole entry): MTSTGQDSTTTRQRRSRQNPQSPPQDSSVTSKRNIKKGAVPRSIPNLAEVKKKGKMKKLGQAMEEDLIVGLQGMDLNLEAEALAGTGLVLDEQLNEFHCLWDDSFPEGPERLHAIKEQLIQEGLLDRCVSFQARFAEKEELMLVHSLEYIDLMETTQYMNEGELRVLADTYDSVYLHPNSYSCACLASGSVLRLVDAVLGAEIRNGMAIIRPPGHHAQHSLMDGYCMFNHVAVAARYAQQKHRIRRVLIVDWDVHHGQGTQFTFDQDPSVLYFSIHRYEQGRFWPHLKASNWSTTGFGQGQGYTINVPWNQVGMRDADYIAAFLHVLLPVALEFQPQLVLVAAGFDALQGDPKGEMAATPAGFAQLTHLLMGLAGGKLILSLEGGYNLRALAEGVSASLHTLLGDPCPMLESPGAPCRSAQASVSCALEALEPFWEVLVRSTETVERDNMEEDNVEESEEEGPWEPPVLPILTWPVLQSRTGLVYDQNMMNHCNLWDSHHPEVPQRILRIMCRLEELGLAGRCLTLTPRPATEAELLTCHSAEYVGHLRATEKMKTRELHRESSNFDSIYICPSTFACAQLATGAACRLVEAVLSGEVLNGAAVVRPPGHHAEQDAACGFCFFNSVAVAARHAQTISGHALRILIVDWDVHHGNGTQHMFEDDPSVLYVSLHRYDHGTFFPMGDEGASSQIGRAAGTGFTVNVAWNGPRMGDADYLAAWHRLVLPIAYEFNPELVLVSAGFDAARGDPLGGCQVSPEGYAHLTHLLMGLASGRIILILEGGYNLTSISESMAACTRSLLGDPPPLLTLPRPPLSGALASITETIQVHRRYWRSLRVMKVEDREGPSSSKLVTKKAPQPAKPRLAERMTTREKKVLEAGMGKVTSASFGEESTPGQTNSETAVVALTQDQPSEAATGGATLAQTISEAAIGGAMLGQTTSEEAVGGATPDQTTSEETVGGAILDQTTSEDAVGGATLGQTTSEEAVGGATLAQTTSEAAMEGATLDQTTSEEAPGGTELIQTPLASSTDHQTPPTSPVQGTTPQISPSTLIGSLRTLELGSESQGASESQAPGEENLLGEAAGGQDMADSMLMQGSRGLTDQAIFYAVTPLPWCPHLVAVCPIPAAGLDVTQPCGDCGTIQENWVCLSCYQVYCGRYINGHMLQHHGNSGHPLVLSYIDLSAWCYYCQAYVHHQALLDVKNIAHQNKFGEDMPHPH

Histone deacetylase 1 [5] = target: T4, Histone deacetylase 1 (Homo sapiens, UniProt Q13547); assay: Inhibition of HDAC1 at 10 uM
T4 sequence (Q13547 whole entry): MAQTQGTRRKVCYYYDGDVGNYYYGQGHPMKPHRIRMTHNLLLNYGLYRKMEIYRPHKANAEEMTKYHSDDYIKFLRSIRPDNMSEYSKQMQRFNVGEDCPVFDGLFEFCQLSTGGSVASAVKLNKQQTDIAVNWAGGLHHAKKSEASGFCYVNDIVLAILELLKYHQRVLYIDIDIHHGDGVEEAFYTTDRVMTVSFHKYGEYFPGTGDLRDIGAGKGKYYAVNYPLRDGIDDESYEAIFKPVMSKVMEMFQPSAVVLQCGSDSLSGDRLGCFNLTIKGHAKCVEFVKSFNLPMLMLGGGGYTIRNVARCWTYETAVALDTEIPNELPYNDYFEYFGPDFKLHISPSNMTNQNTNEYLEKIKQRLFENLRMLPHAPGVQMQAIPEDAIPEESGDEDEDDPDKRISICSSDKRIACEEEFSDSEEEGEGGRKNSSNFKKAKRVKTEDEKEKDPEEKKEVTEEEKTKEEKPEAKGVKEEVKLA

[6] = test system: T5, Histone deacetylase 4 (Homo sapiens), P56524 [H976Y]; assay: Inhibition of HDAC4GOF mutant at 10 uM
T5 sequence (whole entry): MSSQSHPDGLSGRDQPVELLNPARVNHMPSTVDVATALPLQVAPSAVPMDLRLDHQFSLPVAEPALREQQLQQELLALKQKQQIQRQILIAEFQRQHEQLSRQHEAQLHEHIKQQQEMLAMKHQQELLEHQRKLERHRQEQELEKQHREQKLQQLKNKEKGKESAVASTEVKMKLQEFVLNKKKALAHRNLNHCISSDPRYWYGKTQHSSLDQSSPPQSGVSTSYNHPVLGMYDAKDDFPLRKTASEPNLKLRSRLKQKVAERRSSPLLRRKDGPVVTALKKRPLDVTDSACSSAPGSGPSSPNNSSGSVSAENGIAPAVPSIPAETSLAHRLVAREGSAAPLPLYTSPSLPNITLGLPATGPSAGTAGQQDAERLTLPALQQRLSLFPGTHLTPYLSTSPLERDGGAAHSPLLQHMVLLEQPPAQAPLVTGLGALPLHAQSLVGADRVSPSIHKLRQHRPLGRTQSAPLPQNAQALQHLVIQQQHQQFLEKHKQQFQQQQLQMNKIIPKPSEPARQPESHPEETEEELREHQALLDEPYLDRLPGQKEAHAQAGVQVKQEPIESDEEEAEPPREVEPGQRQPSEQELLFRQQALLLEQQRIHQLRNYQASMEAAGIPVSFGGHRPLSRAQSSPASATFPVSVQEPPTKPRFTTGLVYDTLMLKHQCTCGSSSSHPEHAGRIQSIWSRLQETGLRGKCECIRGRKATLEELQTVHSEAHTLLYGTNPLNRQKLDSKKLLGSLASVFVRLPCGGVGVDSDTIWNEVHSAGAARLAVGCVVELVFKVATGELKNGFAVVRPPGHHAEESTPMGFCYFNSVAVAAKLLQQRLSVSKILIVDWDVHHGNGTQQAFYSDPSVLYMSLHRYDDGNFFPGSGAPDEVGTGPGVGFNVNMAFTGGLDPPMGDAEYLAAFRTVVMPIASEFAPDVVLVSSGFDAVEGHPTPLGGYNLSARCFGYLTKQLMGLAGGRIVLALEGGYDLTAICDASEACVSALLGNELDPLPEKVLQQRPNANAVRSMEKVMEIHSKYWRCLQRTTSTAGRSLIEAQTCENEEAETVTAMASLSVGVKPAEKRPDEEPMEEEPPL

Histone deacetylase 4 [7] = target: T2, Histone deacetylase 4; assay: Inhibition of wild type HDAC4 at 10 uM
[8] = target: T6, Protein deacetylase HDAC6 (Homo sapiens) (UniProt Q9UBN7); assay: Inhibition of HDAC6 at 10 uM
T6 sequence (whole entry): T3 sequence (Q9UBN7 whole entry)

Histone deacetylase 1 [9] = target: T4, Histone deacetylase 1; assay: Inhibition of HDAC1
Histone deacetylase 3 [10] = target: T1, Histone deacetylase 3; assay: Inhibition of HDAC3

T1 sequence (O15379 whole entry): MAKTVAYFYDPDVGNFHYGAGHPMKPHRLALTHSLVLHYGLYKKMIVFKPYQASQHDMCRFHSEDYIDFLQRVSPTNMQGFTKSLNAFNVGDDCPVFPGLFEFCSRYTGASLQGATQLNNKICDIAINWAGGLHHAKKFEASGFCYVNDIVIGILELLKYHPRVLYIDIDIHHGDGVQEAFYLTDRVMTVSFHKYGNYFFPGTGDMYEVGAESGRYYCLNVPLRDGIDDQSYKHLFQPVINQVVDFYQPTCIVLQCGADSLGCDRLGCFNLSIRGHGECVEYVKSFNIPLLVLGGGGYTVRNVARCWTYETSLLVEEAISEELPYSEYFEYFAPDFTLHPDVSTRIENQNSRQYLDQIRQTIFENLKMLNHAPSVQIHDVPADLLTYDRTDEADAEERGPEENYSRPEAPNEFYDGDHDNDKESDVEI

Activity (Histone deacetylase 3 [1])	IC50 (Histone deacetylase 4 [2]) [nM]	IC50 (Histone deacetylase 4 [3]) [nM]	IC50 [4] [nM]	Activity (Histone deacetylase 1 [5])	Activity [6]	IC50 (Histone deacetylase 1 [9]) [nM]	IC50 (Histone deacetylase 3 [10]) [nM]	SMILES	other results
inactive	2700	5500	410	inactive				COc1ccc(COCc2ccc(C(=O)C(F)(F)F)s2)cc1	
inactive	2500	1700	640	inactive				CN(Cc1ccccc1)C(=O)c1cc(C(=O)C(F)(F)F)cs1	
inactive				inactive	inactive			O=C(c1ccc(B(O)O)s1)N1CCc2ccccc21	Activity (Histone deacetylase 4 [7]): inactive; inhibition [8]: 42%
inactive		9400	2500	inactive	inactive			CN(Cc1ccccc1)S(=O)(=O)c1csc(C(=O)C(F)(F)F)c1	
inactive				inactive	inactive			O=C(c1ccc(C2(C(F)(F)F)OCCO2)s1)N1CCc2ccccc21	Activity (Histone deacetylase 4 [7]): inactive; Activity [8]: inactive
inactive	3100	2500	550					CCOC(=O)c1ccc(C(=O)C(F)(F)F)o1	inhibition (Histone deacetylase 1 [5]): 48%
					inactive	4200	2900	COc1ccc(CNC(=O)c2ccc(C(=O)C(F)(F)C(F)(F)F)s2)cc1	Activity (Histone deacetylase 4 [7]): inactive; Activity [8]: inactive
inactive	3500	3700	840	inactive				C[C@@H](NCc1ccc(C(=O)C(F)(F)F)s1)c1ccccc1	
inactive	1200	340	730	inactive				CN(Cc1ccccc1)S(=O)(=O)c1ccc(C(=O)C(F)(F)F)s1	
inactive				inactive	inactive			CN(Cc1ccccc1)C(=O)c1ccc(C(O)C(F)(F)F)s1 (centres undefined)	Activity (Histone deacetylase 4 [7]): inactive; Activity [8]: inactive
inactive				inactive	inactive			CN(Cc1ccc2nccnc2c1)C(=O)c1ccc(C(=O)O)s1	Activity (Histone deacetylase 4 [7]): inactive; Activity [8]: inactive
	180	330	210			880	1700	O=C(NCCc1ccccc1)c1ccc(C(=O)C(F)(F)F)s1	
inactive			4200	inactive	inactive			O=C(NCC1CCCCC1)c1cccc(C(=O)C(F)(F)F)c1	Activity (Histone deacetylase 4 [7]): inactive
	350	400	460			2900	3100	O=C(NCC1CCCCC1)c1ccc(C(=O)C(F)(F)F)s1	
inactive				inactive	inactive			O=C(c1ccc(P(=O)(O)O)s1)N1CCc2ccccc21	Activity (Histone deacetylase 4 [7]): inactive; Activity [8]: inactive
	70	180	240			210	120	COc1ccc(CNC(=O)c2ccc(C(=O)C(F)(F)F)s2)cc1	
	2200	760	1300				7300	CN(Cc1ccccc1)C(=O)c1cnc(C(=O)C(F)(F)F)s1	inhibition (Histone deacetylase 1 [5]): 46%
inactive			2500	inactive				O=C(NCC1CCCCC1)c1ccc(C(=O)C(F)(F)F)cc1	inhibition [6]: 31%; inhibition (Histone deacetylase 4 [7]): 32%
inactive	2400	3300	2000					O=C(NCC1CCCCC1)c1cc(C(=O)C(F)(F)F)cs1	inhibition (Histone deacetylase 1 [5]): 40%
	350	320	550			5700	3500	CCOC(=O)c1ccc(C(=O)C(F)(F)F)s1	
	1100	970	490			3100	4600	CN(Cc1ccccc1)Cc1ccc(C(=O)C(F)(F)F)s1	
	170	510	230			1800	1200	CN(Cc1ccccc1)C(=O)c1ccc(C(=O)C(F)(F)F)s1	
	2900	850	1500	inactive			7600	O=C(NCC1CCCCC1)c1cnc(C(=O)C(F)(F)F)s1	
inactive			6900	inactive	inactive			CC(=O)c1ccc(C(=O)N[C@H](C)c2ccccc2)s1	Activity (Histone deacetylase 4 [7]): inactive
	1000	1700	310			7100		CCNC(=O)c1ccc(C(=O)C(F)(F)F)s1	
inactive			880	inactive	inactive			O=C(c1ccc(C(=O)C(F)(F)F)[nH]1)N1CCc2ccccc21	inhibition (Histone deacetylase 4 [7]): 47%
inactive				inactive	inactive			CS(=O)(=O)c1ccc(C(=O)N2CCc3ccccc32)s1	Activity (Histone deacetylase 4 [7]): inactive; inhibition [8]: 47%

SMILES	Activity (Histone deacetylase 3 [1])	IC50 (Histone deacetylase 4 [2]) [nM]	IC50 (Histone deacetylase 4 [3]) [nM]	IC50 [4] [nM]	Activity (Histone deacetylase 1 [5])	Activity [6]	IC50 (Histone deacetylase 1 [9]) [nM]	IC50 (Histone deacetylase 3 [10]) [nM]	other results
O=C(c1ccc(C(=O)C(F)(F)F)s1)N1CCc2ccccc21		300	130	200			2000	1700	
O=C(c1ccc(C(=O)N2CCc3ccccc32)s1)C(F)F		420	7600	15			9700		inhibition (Histone deacetylase 3 [1]): 42%
C[C@@H](NC(=O)c1ccc(C(=O)C(F)(F)F)s1)c1ccccc1		160	76	360			320	230	
C[C@H](NC(=O)c1ccc(C(=O)C(F)(F)F)s1)c1ccccc1		280	170	210			5300	9400	
